We go through two compounds from BindingDB's records for patent US11590142 (Bugworks Research, 2023).

The structures appear in SMILES notation.

In this experiment the target is DNA gyrase (Escherichia coli, UniProt P0AES4+P0AES6). In words: Enzyme Inhibition Assay.

Protocol: The reactions were then started with the addition of 60 ng relaxed pBR322 plasmid DNA and continued for 45 min at 37° C. The reaction mixture contained 35 mM Tris.HCl (pH 7.5), 24 mM KCl, 1.8 mM spermidine, 4 mM MgCl2, 2 mM DTT, 6.5% (w/v) glycerol, 0.1 mg/mL BSA, and 1 mM ATP. The reaction was then stopped by addition of 0.75 L of Proteinase K (20 mg/mL) and 3 μL of 2% SDS and further incubated at 37° C. for 30 min. This was followed by the addition of 4 μL of STEB (40% (w/v) sucrose, 100 mM Tris-HCl pH8, 1 mM EDTA, 0.5 mg/ml Bromophenol Blue), and the supercoiled/relaxed forms of plasmid DNA were separated by agarose gel electrophoresis. The 1% agarose gels were run for 3 h at 4V/cm in 1×TAE (40 mM Tris, 20 mM Acetic acid, 1 mM EDTA). To visualize the DNA the gels were stained for 10 min with 0.7 g/mL ethidium bromide and excess dye was removed by several washes with water. IC50 were determined by quantifying the supercoiled and relaxed DNA in each of the reactions from a gel image by a densitometric method using the Quantity One Software (Bio-rad).

`Cn1c(=O)cnc2ccc(OCCNC[C@H]3CN(c4ccc5c(n4)NC(=O)CO5)C(=O)O3)nc21` [US11590142, Compound 3]: the half-maximal inhibitory concentration (IC50) stood at 47 nM.

Compound `Cn1c(=O)ccc2ncc(OCCNC[C@H]3CN(c4ccc5c(n4)NC(=O)CO5)C(=O)O3)nc21` [US11590142, Compound 5] yielded an IC50 of 32 nM.

By IC50 is commonly meant the concentration at which inhibition is half-maximal. Read a high IC50 as weaker potency in that assay.
